From patent US10206394B2, “Herbicidal compounds” (Syngenta Participations AG, priority 2014, dated 2019)
Where two headings read alike, the source gives them in different places.

Assays:
Assay in all cases: Glasshouse assay for herbicidal activity (pre- and post-emergence), percentage phytotoxicity
Type in all cases: in vivo
[1] = system: Echinochloa crus-galli (ECHCG); settings: Echinochloa crus-galli
Experimental: (§1) Test—Glasshouse Assay for Herbicidal Activity
(§2) Seeds of a variety of monocotyledonous and dicotyledonous test plants are sown in standard soil in pots. The plants are cultivated for one day (for pre-emergence (PRE)) or for about 12 days (for post-emergence (POST)) under controlled conditions in a glasshouse (warm climate species at 24/18° C., cool climate species at 20/16° C., both at day/night; 16 hours light; 65% humidity).
(§3) The test plants are then grown on, in a glasshouse (greenhouse) under controlled conditions (warm climate species at 24/18° C., cool climate species at 20/16° C., both at day/night; 16 hours light; 65% humidity) and are watered twice daily. 15 days after application of the test herbicide (15 DAA) (for post-emergence), and 20 days after application of the test herbicide (20 DAA) (for pre-emergence), the test plants are evaluated visually, and an assessed percentage phytotoxicity score is given for each herbicidal application on each plant species (with 100%=total damage to plant; 0%=no damage to plant).
(§4) The plant species tested are as follows: Alopecurus myosuroides (ALOMY), Avena fatua (AVEFA), Lolium perenne (LOLPE), Echinochloa crus-galli (ECHCG).

[2] = system: Alopecurus myosuroides (ALOMY); settings: Alopecurus myosuroides
Experimental: as §1, §2, §3, §4

[3] = system: Avena fatua (AVEFA); settings: Avena fatua
Experimental: as §1, §2, §3, §4

[4] = system: Lolium perenne (LOLPE); settings: Lolium perenne
Experimental: as §1, §2, §3, §4

[5] = post-emergence, 360 h, POST-emergence, rate 250 g/ha, visual score 15 DAA (100%=total damage, 0%=no damage), read-out: Post-emergence herbicidal activity (percentage phytotoxicity) ECHCG POST
[6] = pre-emergence, 480 h, PRE-emergence, rate 250 g/ha, visual score 20 DAA (100%=total damage, 0%=no damage), read-out: Pre-emergence herbicidal activity (percentage phytotoxicity) ECHCG PRE
[7] = post-emergence, 360 h, POST-emergence, rate 250 g/ha, visual score 15 DAA (100%=total damage, 0%=no damage), read-out: Post-emergence herbicidal activity (percentage phytotoxicity) ALOMY POST
[8] = pre-emergence, 480 h, PRE-emergence, rate 250 g/ha, visual score 20 DAA (100%=total damage, 0%=no damage), read-out: Pre-emergence herbicidal activity (percentage phytotoxicity) ALOMY PRE
[9] = post-emergence, 360 h, POST-emergence, rate 250 g/ha, visual score 15 DAA (100%=total damage, 0%=no damage), read-out: Post-emergence herbicidal activity (percentage phytotoxicity) AVEFA POST
[10] = pre-emergence, 480 h, PRE-emergence, rate 250 g/ha, visual score 20 DAA (100%=total damage, 0%=no damage), read-out: Pre-emergence herbicidal activity (percentage phytotoxicity) AVEFA PRE
[11] = post-emergence, 360 h, POST-emergence, rate 250 g/ha, visual score 15 DAA (100%=total damage, 0%=no damage), read-out: Post-emergence herbicidal activity (percentage phytotoxicity) LOLPE POST
[12] = pre-emergence, 480 h, PRE-emergence, rate 250 g/ha, visual score 20 DAA (100%=total damage, 0%=no damage), read-out: Pre-emergence herbicidal activity (percentage phytotoxicity) LOLPE PRE

| SMILES | pest or weed control at 250 g/ha [1, 5] | pest or weed control at 250 g/ha [1, 6] | pest or weed control at 250 g/ha [2, 7] | pest or weed control at 250 g/ha [2, 8] | pest or weed control at 250 g/ha [3, 9] | pest or weed control at 250 g/ha [3, 10] | pest or weed control at 250 g/ha [4, 11] | pest or weed control at 250 g/ha [4, 12] | other results |
| --- | --- | --- | --- | --- | --- | --- | --- | --- | --- |
| CCc1cc(-n2cc(Cl)cn2)cc(C)c1C1C(=O)CC(CC(=O)N(C)CC)C1=O (stereo not shown) [Compound B238] | 100% | 100% | 100% | 100% | 100% | 100% | 100% | 100% |  |
| Cc1cc(C)c(C2C(=O)CC(CC(=O)NC3COC3)C2=O)c(C)c1 (stereo not shown) [Compound A182] |  |  |  |  |  |  |  |  | pest or weed control at 250 g/ha ([1]; post-emergence, 360 h, post-emergence, 250 g/ha, 15 DAA, visual score (100%=total damage; 0%=no damage), read-out: ECHCG POST herbicidal activity (percentage phytotoxicity)): 80%; pest or weed control at 250 g/ha ([1]; pre-emergence, 480 h, pre-emergence, 250 g/ha, 20 DAA, visual score (100%=total damage; 0%=no damage), read-out: ECHCG PRE herbicidal activity (percentage phytotoxicity)): 0%; pest or weed control at 250 g/ha ([2]; post-emergence, 360 h, post-emergence, 250 g/ha, 15 DAA, visual score (100%=total damage; 0%=no damage), read-out: ALOMY POST herbicidal activity (percentage phytotoxicity)): 70%; pest or weed control at 250 g/ha ([2]; pre-emergence, 480 h, pre-emergence, 250 g/ha, 20 DAA, visual score (100%=total damage; 0%=no damage), read-out: ALOMY PRE herbicidal activity (percentage phytotoxicity)): 70%; pest or weed control at 250 g/ha ([3]; post-emergence, 360 h, post-emergence, 250 g/ha, 15 DAA, visual score (100%=total damage; 0%=no damage), read-out: AVEFA POST herbicidal activity (percentage phytotoxicity)): 70%; pest or weed control at 250 g/ha ([3]; pre-emergence, 480 h, pre-emergence, 250 g/ha, 20 DAA, visual score (100%=total damage; 0%=no damage), read-out: AVEFA PRE herbicidal activity (percentage phytotoxicity)): 20%; pest or weed control at 250 g/ha ([4]; post-emergence, 360 h, post-emergence, 250 g/ha, 15 DAA, visual score (100%=total damage; 0%=no damage), read-out: LOLPE POST herbicidal activity (percentage phytotoxicity)): 40%; pest or weed control at 250 g/ha ([4]; pre-emergence, 480 h, pre-emergence, 250 g/ha, 20 DAA, visual score (100%=total damage; 0%=no damage), read-out: LOLPE PRE herbicidal activity (percentage phytotoxicity)): 70% |
| Cc1cc(OCC(F)(F)F)cc(C)c1C1C(=O)CC(CC(=O)NC(C)C)C1=O (stereo not shown) [Compound B208] | 100% | 100% | 90% | 90% | 90% | 80% | 90% | 80% |  |
| Cc1cc(C)c(C2C(=O)CC(CC(=O)NC3CC3(F)F)C2=O)c(C)c1 (stereo not shown) [Compound B98] |  |  |  |  |  |  |  |  | pest or weed control at 250 g/ha ([1]; post-emergence, 360 h, 250 g/ha, post-emergence, 15 DAA, visual assessment (100%=total damage, 0%=no damage), read-out: Post-emergence herbicidal activity (percentage phytotoxicity) ECHCG POST): 60%; pest or weed control at 250 g/ha ([1]; pre-emergence, 480 h, 250 g/ha, pre-emergence, 20 DAA, visual assessment (100%=total damage, 0%=no damage), read-out: Pre-emergence herbicidal activity (percentage phytotoxicity) ECHCG PRE): 80%; pest or weed control at 250 g/ha ([2]; post-emergence, 360 h, 250 g/ha, post-emergence, 15 DAA, visual assessment (100%=total damage, 0%=no damage), read-out: Post-emergence herbicidal activity (percentage phytotoxicity) ALOMY POST): 60%; pest or weed control at 250 g/ha ([2]; pre-emergence, 480 h, 250 g/ha, pre-emergence, 20 DAA, visual assessment (100%=total damage, 0%=no damage), read-out: Pre-emergence herbicidal activity (percentage phytotoxicity) ALOMY PRE): 60%; pest or weed control at 250 g/ha ([3]; post-emergence, 360 h, 250 g/ha, post-emergence, 15 DAA, visual assessment (100%=total damage, 0%=no damage), read-out: Post-emergence herbicidal activity (percentage phytotoxicity) AVEFA POST): 20%; pest or weed control at 250 g/ha ([3]; pre-emergence, 480 h, 250 g/ha, pre-emergence, 20 DAA, visual assessment (100%=total damage, 0%=no damage), read-out: Pre-emergence herbicidal activity (percentage phytotoxicity) AVEFA PRE): 0%; pest or weed control at 250 g/ha ([4]; post-emergence, 360 h, 250 g/ha, post-emergence, 15 DAA, visual assessment (100%=total damage, 0%=no damage), read-out: Post-emergence herbicidal activity (percentage phytotoxicity) LOLPE POST): 80%; pest or weed control at 250 g/ha ([4]; pre-emergence, 480 h, 250 g/ha, pre-emergence, 20 DAA, visual assessment (100%=total damage, 0%=no damage), read-out: Pre-emergence herbicidal activity (percentage phytotoxicity) LOLPE PRE): 90% |
| Cc1cc(-c2ccc(Cl)cn2)cc(C)c1C1C(=O)CC(CC(=O)NCc2cccc(F)c2)C1=O (stereo not shown) [Compound B357] |  |  |  |  |  |  |  |  | pest or weed control at 250 g/ha ([1]; post-emergence, 360 h, Rate 250 g/ha, post-emergence, visual assessment 15 DAA, 100%=total damage, 0%=no damage, read-out: Post-emergence herbicidal activity (percentage phytotoxicity) ECHCG POST): 100%; pest or weed control at 250 g/ha ([1]; pre-emergence, 480 h, Rate 250 g/ha, pre-emergence, visual assessment 20 DAA, 100%=total damage, 0%=no damage, read-out: Pre-emergence herbicidal activity (percentage phytotoxicity) ECHCG PRE): 100%; pest or weed control at 250 g/ha ([2]; post-emergence, 360 h, Rate 250 g/ha, post-emergence, visual assessment 15 DAA, 100%=total damage, 0%=no damage, read-out: Post-emergence herbicidal activity (percentage phytotoxicity) ALOMY POST): 90%; pest or weed control at 250 g/ha ([2]; pre-emergence, 480 h, Rate 250 g/ha, pre-emergence, visual assessment 20 DAA, 100%=total damage, 0%=no damage, read-out: Pre-emergence herbicidal activity (percentage phytotoxicity) ALOMY PRE): 80%; pest or weed control at 250 g/ha ([3]; post-emergence, 360 h, Rate 250 g/ha, post-emergence, visual assessment 15 DAA, 100%=total damage, 0%=no damage, read-out: Post-emergence herbicidal activity (percentage phytotoxicity) AVEFA POST): 100%; pest or weed control at 250 g/ha ([3]; pre-emergence, 480 h, Rate 250 g/ha, pre-emergence, visual assessment 20 DAA, 100%=total damage, 0%=no damage, read-out: Pre-emergence herbicidal activity (percentage phytotoxicity) AVEFA PRE): 90%; pest or weed control at 250 g/ha ([4]; post-emergence, 360 h, Rate 250 g/ha, post-emergence, visual assessment 15 DAA, 100%=total damage, 0%=no damage, read-out: Post-emergence herbicidal activity (percentage phytotoxicity) LOLPE POST): 90%; pest or weed control at 250 g/ha ([4]; pre-emergence, 480 h, Rate 250 g/ha, pre-emergence, visual assessment 20 DAA, 100%=total damage, 0%=no damage, read-out: Pre-emergence herbicidal activity (percentage phytotoxicity) LOLPE PRE): 100% |
| Cc1cc(-c2ncc(F)cn2)cc(C)c1C1C(=O)CC(CC(=O)N(C)Cc2cccc(F)c2)C1=O (stereo not shown) [Compound B273] | 100% | 100% | 100% | 90% | 100% | 90% | 100% | 100% |  |
| C=CC(C)NC(=O)CC1CC(=O)C(c2c(C)cc(Br)cc2C)C1=O (stereo not shown) [Compound B301] | 70% | 60% | 70% | 80% | 70% | 50% | 50% | 70% |  |
| CCc1cc(OCC(F)(F)F)cc(C)c1C1C(=O)CC(CC(=O)N(C)C(C)(C)C)C1=O (stereo not shown) [Compound B221] | 100% | 100% | 100% | 100% | 100% | 100% | 100% | 100% |  |
